Consider three compounds from PMC9065348 (Frontiers in Pharmacology, 2022).

Data set [1] concerns CYP3A4. The note with it: Sprague-Dawley rats; ref Qin et al. (2013); cited from earlier work.
Data set [2] deals with P-gp. The conditions noted are these: Sprague-Dawley rats; ref Qin et al. (2013); cited from earlier work.
The target in data set [3] is CYP3A4 (Homo sapiens, UniProt P08684). Also noted: method as in Wan et al. (2010). The conditions noted are these: HepG2; ref Wan et al. (2010); cited from earlier work.
In data set [4] the test system is P-gp. Also noted: method as in Wan et al. (2010). The note with it: HepG2; ref Wan et al. (2010); cited from earlier work.
Data set [5] concerns CYP3A4. Also noted: method as in Li et al. (2012). The conditions noted are these: Rat hepatic microsomes; ref Li et al. (2012); cited from earlier work.
The nature of data set [6]: Pharmacokinetics of LOS and EXP3174 in the hypertension rat model (LC-MS). The format is in vivo, Wistar rats. The conditions noted are these: hypertensive rats (L-NAME); for AUC(0-inf) / AUC(0-t) / Cmax / MRT / Tmax / half-life: Wistar, rat, plasma, po, 10 mg/kg/day. The protocol:
All samples were centrifuged at 3,000 rpm for 10 min, and the upper plasma was collected for Liquid Chromatography Mass Spectrometry (LC-MS) analysis. The LOS and EXP3174 in rat serum were quantitatively determined by a validated LC-MS method. The LC-MS system contained a Q/Exactive Quadrupole/Electrostatic Field Track Well High Resolution Mass Spectrometer (Thermo Fisher Scientific, Waltham, MA, United States) and a Dionex Ultimate 3,000 High-pressure liquid chromatography (Dionex, Subsidiary, CA, United States) system equipped with an electro-spray ionization source. […] The mobile phase included 0.1% formic acid aqueous solution (C) and acetonitrile (D) at a flow rate of 0.3 ml/min. The proportion of phase B in the mobile phase was adjusted from 40 to 5% at 0-2 min, 5% at 2-4 min, 40% at 4-5 min. The parameters of mass spectrometry for each analyte were shown in Supplementary Figure S1 . The collected data were analyzed through Xcalibur 4.1 software. The serum drug concentration data in each sample were obtained by calculation. The pharmacokinetic parameters corresponding to each rat were calculated using the “non-compartmental model” of the “PK solution 2.0TM (Summit Research Services, United States)” pharmacokinetic software. The half-life (t 1/2 ), peak drug concentration (C max), peak time (T max), the area under the plasma concentration-time curve (AUC) from time zero to the time of the last measurable plasma concentration (AUC 0-t ), AUC from time zero to infinity (AUC 0-∞ ), mean residence time (MRT), clearance (CL), apparent volume of distribution (V d ), and relative bioavailability (Frel) were calculated.

A short description of data set [7]: Pharmacokinetics of LOS and EXP3174 in non-hypertensive Wistar rats (LC-MS). The format is in vivo. The conditions noted are these: rat, serum, po; Wistar rats without L-NAME; LOS 10 mg/kg/d ig alone (BLANK + LOS group). The protocol: All groups were treated for 2 weeks and the blood collection time and methods of serum management were the same as those mentioned above. The LOS and EXP3174 in rat serum were quantitatively determined by a validated LC-MS method. The LC-MS system contained a Q/Exactive Quadrupole/Electrostatic Field Track Well High Resolution Mass Spectrometer (Thermo Fisher Scientific, Waltham, MA, United States) and a Dionex Ultimate 3,000 High-pressure liquid chromatography (Dionex, Subsidiary, CA, United States) system equipped with an electro-spray ionization source. […] The mobile phase included 0.1% formic acid aqueous solution (C) and acetonitrile (D) at a flow rate of 0.3 ml/min. The proportion of phase B in the mobile phase was adjusted from 40 to 5% at 0–2 min, 5% at 2–4 min, 40% at 4–5 min. The parameters of mass spectrometry for each analyte were shown in Supplementary Figure S1 . The collected data were analyzed through Xcalibur 4.1 software. The serum drug concentration data in each sample were obtained by calculation. The pharmacokinetic parameters corresponding to each rat were calculated using the “non-compartmental model” of the “PK solution 2.0TM (Summit Research Services, United States)” pharmacokinetic software. The half-life (t 1/2 ), peak drug concentration (C max), peak time (T max), the area under the plasma concentration-time curve (AUC) from time zero to the time of the last measurable plasma concentration (AUC 0-t ), AUC from time zero to infinity (AUC 0-∞ ), mean residence time (MRT), clearance (CL), apparent volume of distribution (V d ), and relative bioavailability (Frel) were calculated.

On the set-up of data set [8]: method as in Sica et al., 2005; Burnier and Wuerzner, 2011. The note with it: ref Sica et al., 2005; Burnier and Wuerzner, 2011; cited from earlier work.
Setting [9] is: LOS 10 mg/kg/d ig + SMI 2 ml/kg/d tail vein (SMI-L+LOS group).
Where [10] appears, read: LOS 10 mg/kg/d ig + SMI 4 ml/kg/d tail vein (SMI-M+LOS group).
Setting [11] is: LOS 10 mg/kg/d ig + SMI 6 ml/kg/d tail vein (SMI-H+LOS group).
Where [12] appears, read: LOS 10 mg/kg/d ig alone (LOS group).

Like-named read-outs stand apart in the source and are kept apart here.

Chain of CYP3A4 (Homo sapiens, UniProt P08684) (P08684 whole entry): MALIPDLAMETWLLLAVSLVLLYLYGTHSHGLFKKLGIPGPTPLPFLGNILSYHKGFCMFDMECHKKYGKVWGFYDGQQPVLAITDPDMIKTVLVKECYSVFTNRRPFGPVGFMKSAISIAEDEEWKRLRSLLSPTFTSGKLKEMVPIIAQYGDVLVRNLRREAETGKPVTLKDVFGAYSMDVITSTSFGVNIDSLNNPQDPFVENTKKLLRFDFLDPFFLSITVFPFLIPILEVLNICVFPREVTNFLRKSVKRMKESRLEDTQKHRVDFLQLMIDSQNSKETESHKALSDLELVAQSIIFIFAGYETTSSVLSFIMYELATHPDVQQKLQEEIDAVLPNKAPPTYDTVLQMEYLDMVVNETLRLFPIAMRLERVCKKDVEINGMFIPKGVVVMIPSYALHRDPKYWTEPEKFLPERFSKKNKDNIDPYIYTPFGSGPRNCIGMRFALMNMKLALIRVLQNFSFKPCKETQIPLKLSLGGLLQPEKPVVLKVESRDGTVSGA

Take `COc1cc2c(c(OC)c1OC)-c1c(cc(OC)c(OC)c1OC)C[C@](C)(O)[C@@H](C)C2` [schisandrol A]: the “Effects on CYP3A4” value in data set [1] and in data set [3] was “Inhibition” each time. Also, the “Effects on P-Gp” value in data set [2] and in data set [4] was “Inhibition” each time.

As to `COc1cc2c(c(OC)c1OC)-c1c(cc(OC)c(OC)c1OC)C[C@H](C)[C@H](C)C2` [Schisandrin A], the “Effects on CYP3A4” value in data set [5] was “Inhibition”.

A word on the AUC(0-inf): it is total exposure, with the tail of the curve extrapolated. What is called AUC(0-t) is the area under the concentration-time curve up to a stated or last time point. A word on the Cmax: it is the maximum level reached in the sampled fluid or tissue. One may read the MRT as the average time that molecules of a dose stay in the body. As a reminder, the Tmax is the time from dosing to the highest level. As usually defined, the half-life is the time in which the quantity being followed falls by half. As to `CCCCc1nc(Cl)c(C(=O)O)n1Cc1ccc(-c2ccccc2-c2nn[nH]n2)cc1` [EXP3174, losartan carboxylic acid], in data set [6] (setting [9]), the AUC(0-inf) came to 1280 ng·h/mL, the AUC(0-t) was 1180 ng·h/mL, the Cmax was 133 ± 42.8 ng/mL and the MRT is 9.5 ± 1.8 h. Further, in data set [6] (setting [9]), the Tmax amounted to 4.8 ± 1.1 h, the half-life was 6.67 ± 1.34 h, the CL is on record as 23,408.16 ± 11,602.26 ml/h/kg and the Vd is 226,676.52 ± 129,635.61 ml/kg. Besides, in data set [6] (setting [10]), the AUC(0-inf) turned out to be 1500 ng·h/mL, the AUC(0-t) came out at 1380 ng·h/mL, the Cmax stood at 123 ± 44.6 ng/mL and the MRT stood at 11.4 ± 1.62 h. In addition, in data set [6] (setting [10]), the Tmax came to 5.33 ± 1.03 h, the half-life is 6.59 ± 1.44 h, the CL is given as 17,618.36 ± 4346.02 ml/h/kg and the Vd is 159,469.35 ± 65,037.84 ml/kg. Besides, in data set [6] (setting [11]), the AUC(0-inf) is 1380 ng·h/mL, the Cmax came to 81.2 ± 8.14 ng/mL, the mean residence time (MRT) came out at 13.3 ± 2.66 h and the Tmax is 6 ± 1.26 h. In data set [6] (setting [11]), the half-life is 7.31 ± 1.62 h, the CL was 18,577.68 ± 3,249.85 ml/h/kg and the Vd is listed as 188,473.60 ± 36,260.16 ml/kg. In addition, in data set [6] (setting [12]), the AUC(0-inf) came out at 1300 ng·h/mL, the AUC(0-t) was found to be 1160 ng·h/mL, the peak level (Cmax) was 119 ± 36.4 ng/mL and the MRT came out at 11.2 ± 2.34 h. Also, in data set [6] (setting [12]), the Tmax turned out to be 4.33 ± 0.82 h, the half-life is 6.76 ± 1.45 h, the CL is on record as 19,842.49 ± 3,602.55 ml/h/kg and the Vd is reported as 175,713.60 ± 57,295.84 ml/kg. For the same compound, in data set [7], the AUC(0-inf) turned out to be 1170 ng·h/mL, the exposure AUC(0-t) was found to be 1020 ng·h/mL, the Cmax worked out at 115 ± 12.1 ng/mL and the MRT was determined as 9.77 ± 0.26 h. Also, in data set [7], the Tmax worked out at 5.33 ± 1.03 h and the half-life was 6.5 ± 1.52 h. Besides, the “antihypertensive potency relative to losartan” value in data set [8] is listed as 10–40 times.
